Experimental data: PMC10381309 (Journal of Fungi, 2023)
In brackets after ≈: the same amount, converted by molar mass.

How the values were obtained:
Format in all cases: cell-based
[1] = test system: Fonsecaea pedrosoi (CFP 00791); assay: NIH Clinical Collection screening for antifungal activity (growth inhibition, OD 530 nm); settings: Fonsecaea pedrosoi, read-out: % Growth Inhibition
Procedure: These substances are part of the NIH Roadmap Molecular Libraries Screening Centers Network screening library, a collection of chemically diverse substances in Phase I-III clinical trials. Each substance was initially diluted to 1 mM in DMSO and stored at −20 °C until use. […] The final DMSO concentration corresponded to 0.5% v/v. The inoculum was prepared according to the protocol for filamentous fungi proposed by the European Committee on Antimicrobial Susceptibility Testing—EUCAST, with minor modifications. […] After growth, conidia were suspended in 3 mL of sterile distilled water with 0.1% Tween 20, vortexed, and the concentration adjusted to the 0.5 McFarland scale. The suspension was then diluted 1:10 in order to obtain a final working inoculum at 2–5 × 10^5 CFU/mL. Next, 100 µL of the inoculum was added to each well and the plates incubated at 35 °C for 72–96 h. Negative and positive controls consisted of culture medium alone and drug-free culture medium with the fungal inoculum previously described, respectively. Plates were read using a microplate reader (Epoch, Biotek, Wenusky, VT, USA) with a 530 nm filter to obtain the optical density. All plates were also visually read to confirm the equipment data. A calculation was performed to obtain the percentage of inhibition of fungal growth, according to the formula: (1 − (OD1/OD2)) × 100, where OD1 = optical density of the fungus in the presence of the drug; and OD2 = optical density of the growth control drug-free well.

[2] = test system: Cladophialophora carrionii (CFP 00910); assay: Minimum fungicidal concentration determination
Procedure: The MFC was determined as the lowest drug concentration without fungal growth on Sabouraud agar after five days of incubation at 35 °C.

[3] = test system: Exophiala dermatitidis (ATCC 28869); assay: Minimum fungicidal concentration determination
Procedure: (§1) Minimum fungicidal concentration (MFC) was determined in triplicate by transferring a 5 μL aliquot from each well without fungal growth of the microdilution plates used for MIC determination, as described above, onto 2% glucose Sabouraud agar (Sigma Chemical Corporation). The MFC was determined as the lowest drug concentration without fungal growth on Sabouraud agar after five days of incubation at 35 °C. When the MFC/MIC ratio of a hit drug was 1 or 2, the substance was considered fungicidal against the pathogen. If this ratio was greater than 2, the hit drug was considered to be fungistatic.

[4] = test system: Exophiala heteromorpha (ATCC 28180); assay: Minimum fungicidal concentration determination
Procedure: as §1

[5] = test system: Fonsecaea monophora (CFP 00911); assay: Minimum fungicidal concentration determination
Procedure: as §1

[6] = test system: Fonsecaea nubica (CFP 00912); assay: Minimum fungicidal concentration determination
Procedure: as §1

[7] = test system: Fonsecaea pedrosoi (CFP 00791); assay: Minimum fungicidal concentration determination
Procedure: as §1

[8] = test system: Phialophora verrucosa (CFP 00937); assay: Minimum fungicidal concentration determination
Procedure: as §1

[9] = test system: Rhinocladiela similis (CFP 00790); assay: Minimum fungicidal concentration determination
Procedure: as §1

[10] = Effect of albendazole on cell viability, MTT assay; settings: after 96 h
Procedure: After this analysis, the effect on viability of albendazole on both HaCat (human skin keratinocyte) and Vero (monkey kidney epithelial cell) cells was evaluated by MTT assay. Firstly, the mammalian cells (5 × 10^4/well) were allowed to adhere in 96-well tissue culture plates for 4 h at 37 °C in a 5% CO2 atmosphere. Non-adherent cells were removed by washes with sterile DMEM and the wells refilled with DMEM medium supplemented with 10% FBS. The cells were then incubated with increasing concentrations of albendazole (15.62 to 750 µM) and incubated for additional 24 h and 96 h at 37 °C in a 5% CO2 atmosphere. Subsequently, the culture medium was discharged, and the formation of formazan was measured by adding MTT (5 mg/mL in PBS, 25 µg/well) and incubating the wells for 3 h in the dark at 37 °C. Wells with cells receiving only the culture medium with or without 1% DMSO were also included as positive cellular growth controls. The plates were subsequently centrifuged at 500× g for 8 min, the supernatant was removed, the pellet was dissolved in 200 µL of DMSO, and the absorbance measured in an ELISA reader at 570 nm (SpectraMax Gemini 190, Molecular Devices, CA, USA). The 50% cytotoxicity inhibitory concentration (CC50) was determined by non-linear regression analysis.

CBM agents = assay: Chequerboard synergism assay, stated over all tested isolates
Procedure: To assess the type of interaction between the hit drugs and the antifungal drugs most used in the treatment of CBM (itraconazole and terbinafine), the fractional inhibitory concentration index (FICI) was determined, which defines the type of interaction between drugs in combination as follows: synergism if FICI ≤ 0.5; indifference if 0.5 < FICI ≤ 4; and antagonism if FICI > 4 [39]. The FICI was obtained by the sum of the fractional inhibitory concentrations (FIC) or by the formula: (A/MIC(a) = FIC_A) + (B/MIC(b) = FIC_B) = FICI, where: A = MIC of the drug (a) in combination; MIC (a) = MIC of drug (a) alone; B = MIC of drug (b) in combination; and MIC (b) = MIC of drug (b) alone. The test was carried out using the chequerboard method, in which the two drugs were applied in a single well of a 96-well plate, so that in each of the wells there were different concentrations of the combinations between the substance and the antifungal agent (Figure S1). Drug dilutions were prepared following the methodology proposed by EUCAST, starting from a stock solution of the hit drug or antifungal drug 100× concentrated, according to the methodology described to determine the MIC [36]. Hit drug A/antifungal drug B serial microdilution preparations were performed following the above mentioned protocol, observing the final concentration in the wells after the addition of drugs and inoculum. […]

With `CCCSc1ccc2nc(NC(=O)OC)[nH]c2c1` [Albendazole] the inhibition at 10 µM [1] was 98%, the “MFC:MIC Ratio” value ([2]; C. carrionii) was 8 and the MFC ([2]; Cladophialophora carrionii) was 20 µM (≈ 5.31 µg/mL). For the same compound, the “MFC:MIC Ratio” value ([3]; E. dermatitidis) was >32, the MFC ([3]; Exophiala dermatitidis, ATCC28869) was > 80 µM and the “MFC:MIC Ratio” value ([4]; E. heteromorpha) was 32. The MFC ([4]; Exophiala heteromorpha, ATCC28180) was 80 µM (≈ 21.2 µg/mL), the “MFC:MIC Ratio” value ([5]; F. monophora) was 1 and the “fungicidal or fungistatic (MFC/MIC ratio)” value ([5]; F. monophora) was “fungicidal (When the MFC/MIC ratio of a hit drug was 1 or 2, the substance was considered fungicidal)”. For the same compound, the MFC ([5]; Fonsecaea monophora) was 0.625 µM (≈ 0.166 µg/mL), the “MFC:MIC Ratio” value ([6]; F. nubica) was 64 and the MFC ([6]; Fonsecaea nubica) was 40 µM (≈ 10.6 µg/mL). For the same compound, the “MFC:MIC Ratio” value ([7]; F. pedrosoi) was 1, the “fungicidal or fungistatic (MFC/MIC ratio)” value ([7]; F. pedrosoi) was “fungicidal (When the MFC/MIC ratio of a hit drug was 1 or 2, the substance was considered fungicidal)” and the MFC ([7]; Fonsecaea pedrosoi) was 1.25 µM (≈ 0.332 µg/mL). For the same compound, the “MFC:MIC Ratio” value ([8]; P. verrucosa) was 64, the MFC ([8]; Phialophora verrucosa) was 40 µM (≈ 10.6 µg/mL) and the MFC [9] was > 80 µM. The “MFC:MIC Ratio” value ([9]; R. similis) was >64, the CC50 at 96 h ([10]; human, HaCat keratinocyte cells) was 85.1 µM and the CC50 at 96 h ([10]; monkey, Vero kidney epithelial cells) was 262 µM. The “type of interaction, albendazole with itraconazole” value (CBM agents) was “indifferent” and the “type of interaction, albendazole with terbinafine” value (CBM agents) was “indifferent”.
